Data from patent US5607850A, “Enzyme from microbial source: phthalyl amidase” (Eli Lilly and Company, priority 1995, dated 1997).
Entries after “also recorded” stand apart in the source; their conditions may differ. Read-outs that look alike come from different tables or passages of the source. Blank lines part the entries; values can stand above or below the molecule they belong to.

Tests used:
phthalyl amidase [1] = biological target: T1, phthalyl amidase (Xanthobacter agilis, UniProt P0C2Y0); assay: Substrate specificity of phthalyl amidase (Tables 9-11); assay type: biochemical; settings: for Relative Activity: 30° C., pH 8.0
T1 sequence (P0C2Y0 2-453): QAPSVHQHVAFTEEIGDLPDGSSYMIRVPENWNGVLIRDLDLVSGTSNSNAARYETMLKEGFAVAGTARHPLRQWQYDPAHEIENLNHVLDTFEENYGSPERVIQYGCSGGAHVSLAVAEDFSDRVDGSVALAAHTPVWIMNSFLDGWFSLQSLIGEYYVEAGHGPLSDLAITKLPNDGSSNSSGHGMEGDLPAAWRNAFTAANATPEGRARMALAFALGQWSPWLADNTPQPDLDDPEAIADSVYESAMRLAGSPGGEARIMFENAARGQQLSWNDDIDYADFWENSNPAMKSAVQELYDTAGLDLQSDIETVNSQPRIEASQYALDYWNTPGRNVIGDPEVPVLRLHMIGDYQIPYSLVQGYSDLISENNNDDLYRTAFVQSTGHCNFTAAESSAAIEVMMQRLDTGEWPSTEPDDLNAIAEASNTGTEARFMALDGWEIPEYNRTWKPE
Procedure: the activity of phthalyl amidase against 25 compounds was determined. The compounds were divided into beta-lactams (Table 9), phthalyl amides (Table 10), and aromatic ring substituted amides (Table 11). Each reaction mixture (1 ml total volume) contained 2.5 μmol of compound and 0.3 units of enzyme (based on the chromogenic substrate) of the preparative scale purified enzyme, in 50 mM phosphate buffer, pH 8.0. The reactions were conducted at 30° C. Samples of the reaction mixture were taken at various times, and methanol (equal value) was added to stop the reaction. The samples were examined by HPLC to determine the extent of substrate hydrolysis. The amount of compound hydrolyzed was calculated from a standard curve of the test compound. All substrates were stable in buffer at 30° C. and pH 8.0 in the absence of enzyme for 24 hours.

phthalyl amidase [2] = biological target: T1, phthalyl amidase; assay: Influence of effectors and organic solvents on phthalyl amidase activity; assay type: biochemical; settings: for % of Control Activity: 1 mM agent
Procedure: A typical reaction mixture consisted of 1 ml total volume and contained 0.1 mM III, 0.1 μM phthalyl amidase in 50 mM potassium phosphate buffer (pH 5.5-9.0) at 32° C. for 20 minutes. The reactions were stopped by the addition of 1 ml methanol. After removal of precipitate by centrifugation, an aliquot of the supernatant fraction (typically 30 μl) was monitored for the beta-lactam nucleus and phthalic acid by HPLC using a Zorbax C8 column (0.46×15 cm; MacMod Analytical Inc., Chadds Ford, Pa.). The two reaction products were eluted by a mobile phase constructed as continuous mixed gradients from (a) 1% ACN (acetonitrile)/0.2% TFA (trifluoroacetic acid) and (b) 80% ACN/0.2% TFA as follows: 1) 0% (b), 3min; 2) 0-50% (b), 0.5 min; 3) 50-100% (b), 3 min; 4) 100% (b), 2.5 min; 5) 100-1% (b), 0.1 min; and 6) 0% (b), 5 min.
The effect of various agents on the enzymatic activity of phthalyl amidase was determined using standard conditions (see Example 5). All agents were tested at 1 mM final concentration unless otherwise indicated.

Xanthobacter agilis = assay: Induction of phthalyl amidase in cultures of Xanthobacter agilis (Table 1); assay type: cell-based; settings: for effect on wet weight cell mass: 48 hours growth
Procedure: Three compounds at different concentrations were added to aerated cultures of the organism growing at 30° C. in Bac MI medium. The compounds tested were phthalate (PAA), phthalyl glycine (PAG), and PMBL. Cells of Xanthobacter agilis were grown with aeration for 24 hours. This vegetative culture was used to inoculate Bac MI medium (50 ml) containing different concentrations of the compounds to be tested. After 48 hours growth under standard conditions, cells were harvested by centrifugation and wet weight of the cells was determined. Crude cell extracts were prepared by lysozyme treatment of the cells as in Example 1. Suspensions were briefly sonicated to break up the viscous suspension. A cell-free supernatant was obtained by centrifugation of the suspension at 14,000 rpm for 15 minutes.
Enzyme activity in cell-free lysates was determined by monitoring conversion of the chromogenic substrate 4-(2'-carboxy-N-benzoyl)amino-2-carboxy-nitrobenzene (II) to 2-nitro-5-amino benzoic acid and phthalic acid, a reaction catalyzed by phthalyl amidase as shown below: [drawing 4]
The assay reaction mixture (1 ml) consisted of 0.3 μmol of the chromogenic substrate (II) and 0.001-0.5 μg of enzyme preparation in 50 mM potassium phosphate buffer, pH 8.0 (buffer A). The enzymatic reaction was conducted at 30° C. for 10 minutes and the appearance of product was monitored at 380 nm (or 430 nm). The amount of substrate hydrolyzed was calculated from a standard curve of the amine product.

[3] = Table 11, aromatic ring substituted amides

Compound: Nc1ncnc2c1ncn2[C@@H]1O[C@H](COP(=O)(O)OP(=O)(O)OP(=O)(O)O)[C@@H](O)[C@H]1O [ATP, adenosine 5triphosphate]
effect on enzyme activity (phthalyl amidase [2]; 1 mM, iodoacetic acid 10 mM): No organic co-factors, such as ATP, NADPH or others, stimulated enzyme activity

Compound: [Ca+2].[Cl-].[Cl-] [CaCl2]
% of Control Activity (phthalyl amidase [2]): 89%

Compound: [Cl-].[Cl-].[Co+2] [CoCl2]
% of Control Activity (phthalyl amidase [2]): 101%

Compound: [Cl][Cu][Cl] [CuCl2]
% of Control Activity (phthalyl amidase [2]): 36% | effect on enzyme activity (phthalyl amidase [2]; 1 mM, iodoacetic acid 10 mM, listed as Cu^++): exert inhibitory activity; also recorded: significantly inhibited the enzyme | effect on enzyme activity (phthalyl amidase [2]; 1 mM, iodoacetic acid 10 mM, listed as copper ions): significantly reduced phthalyl amidase activity

Compound: O=C(O)CN(CCN(CC(=O)O)CC(=O)O)CC(=O)O [EDTA]
effect on enzyme activity (phthalyl amidase [2]): little or no effect on enzyme activity

Compound: [Cl][Fe][Cl] [FeCl2]
% of Control Activity (phthalyl amidase [2]): 102%

Compound: [Cl][Fe]([Cl])[Cl] [FeCl3]
% of Control Activity (phthalyl amidase [2]): 96%

Compound: O=C(O)CI [Iodoacetate]
effect on enzyme activity (phthalyl amidase [2]): exert inhibitory activity; also recorded: significantly reduced phthalyl amidase activity; also recorded: significantly inhibited the enzyme

Compound: [Cl-].[Cl-].[Mg+2] [MgCl2]
% of Control Activity (phthalyl amidase [2]): 102%

Compound: [Cl][Mn][Cl] [MnCl2]
% of Control Activity (phthalyl amidase [2]): 84%

Compound: NC(=O)C1=CN([C@@H]2O[C@H](COP(=O)(O)OP(=O)(O)OC[C@H]3O[C@@H](n4cnc5c(N)ncnc54)[C@H](OP(=O)(O)O)[C@@H]3O)[C@@H](O)[C@H]2O)C=CC1 [NADPH, reduced form of NADP]
effect on enzyme activity (phthalyl amidase [2]; 1 mM, iodoacetic acid 10 mM): No organic co-factors, such as ATP, NADPH or others, stimulated enzyme activity

Compound: [Cl][Ni][Cl] [NiCl2]
% of Control Activity (phthalyl amidase [2]): 94%

Compound: O=C(O)c1ccccc1C(=O)O [PAA, phthalate]
Cell weight (Xanthobacter agilis; addition 1 mg/ml): 0.35 g/50 ml | Total units/mg protein (Xanthobacter agilis; addition 1 mg/ml): 1.4 µmol/min/mg | Units/g/cells (Xanthobacter agilis; addition 1 mg/ml): 3.9 Units/g/cells | Cell weight (Xanthobacter agilis; addition 2 mg/ml): 0.47 g/50 ml | Total units/mg protein (Xanthobacter agilis; addition 2 mg/ml): 4.3 µmol/min/mg | Units/g/cells (Xanthobacter agilis; addition 2 mg/ml): 9.3 Units/g/cells | Cell weight (Xanthobacter agilis; addition 5 mg/ml): 0.7 g/50 ml | Total units/mg protein (Xanthobacter agilis; addition 5 mg/ml): 3.7 µmol/min/mg | Units/g/cells (Xanthobacter agilis; addition 5 mg/ml): 5.5 Units/g/cells | Cell weight (Xanthobacter agilis; addition 10 mg/ml): 0.6 g/50 ml | Total units/mg protein (Xanthobacter agilis; addition 10 mg/ml): 12.0 µmol/min/mg | Units/g/cells (Xanthobacter agilis; addition 10 mg/ml): 19.8 Units/g/cells

Compound: O=C(O)CNC(=O)c1ccccc1C(=O)O [PAG, phthalyl glycine]
effect on wet weight cell mass (Xanthobacter agilis): increased the wet weight cell mass | Cell weight (Xanthobacter agilis; addition 1 mg/ml): 0.33 g/50 ml | Total units/mg protein (Xanthobacter agilis; addition 1 mg/ml): 0.35 µmol/min/mg | Units/g/cells (Xanthobacter agilis; addition 1 mg/ml): 1.04 Units/g/cells | Cell weight (Xanthobacter agilis; addition 5 mg/ml): 0.5 g/50 ml | Total units/mg protein (Xanthobacter agilis; addition 5 mg/ml): 4.4 µmol/min/mg | Units/g/cells (Xanthobacter agilis; addition 5 mg/ml): 9.4 Units/g/cells

Compound: O=C(O)CN1C(=O)C(NC(=O)c2ccccc2C(=O)O)C1CCc1ccco1 (stereo not drawn) [PMBL, phthalyl monocyclic beta-lactam]
effect on wet weight cell mass (Xanthobacter agilis): had no effect | Cell weight (Xanthobacter agilis; addition 1 mg/ml): 0.35 g/50 ml | Total units/mg protein (Xanthobacter agilis; addition 1 mg/ml): 0.28 µmol/min/mg | Units/g/cells (Xanthobacter agilis; addition 1 mg/ml): 0.79 Units/g/cells | Cell weight (Xanthobacter agilis; addition 5 mg/ml): 0.24 g/50 ml | Total units/mg protein (Xanthobacter agilis; addition 5 mg/ml): 2.0 µmol/min/mg | Units/g/cells (Xanthobacter agilis; addition 5 mg/ml): 8.1 Units/g/cells

Compound: [Cl-].[Cl-].[Zn+2] [ZnCl2]
% of Control Activity (phthalyl amidase [2]): 100%

Compound: O=C(O)CN1C(=O)C(NC(=O)c2ccccc2C(=O)O)C1CCc1ccco1 (stereo not drawn) [drawing 6]
Relative Activity (phthalyl amidase [1]; Table 9, beta-lactams): 47.9

Compound: O=C(O)c1cc[c]([Hg][OH])cc1 [p-HMB, parahydroxy mercuric benzoate]
% of Control Activity (phthalyl amidase [2]): 65% | effect on enzyme activity (phthalyl amidase [2]; 1 mM, iodoacetic acid 10 mM): exert inhibitory activity; also recorded: significantly reduced phthalyl amidase activity; also recorded: significantly inhibited the enzyme

Further lines, with some results ahead:

Relative Activity (phthalyl amidase [1]; Table 10, phthalyl amides): 40.2
Compound: O=C(O)c1ccccc1C(=O)NCc1ccccc1

Relative Activity (phthalyl amidase [1]; Table 10, phthalyl amides): 90.2
Compound: CC(C)CC(NC(=O)c1ccccc1C(=O)O)C(=O)O (racemic) [XVI]

Relative Activity (phthalyl amidase [1]; Table 10, phthalyl amides): 220.1
Compound: CSCCC(NC(=O)c1ccccc1C(=O)O)C(=O)O (racemic) [XV]

acceptance as substrate of the enzyme (phthalyl amidase [1]): acceptable | Relative Activity (phthalyl amidase [1]; [3]): 85.9
Compound: CCCCCCC(C(=O)O)n1cnc(NC(=O)c2ncccc2C(=O)O)c1 (stereo not drawn) [Compound XX]

effect of solvent on enzyme activity (phthalyl amidase [2]; 10% solvent): least amount of inhibition of the enzyme
Compound: OCC(O)CO [Glycerol]

Relative Activity (phthalyl amidase [1]; Table 9, beta-lactams): 0
Compound: O=C(O)CN1C(=O)C(NC(=O)COc2ccccc2)C1CCc1ccco1 (stereo not drawn) [IV]

effect on enzyme activity (phthalyl amidase [2]; 1 mM, iodoacetic acid 10 mM): little or no effect on enzyme activity
Compound: c1cnc2c(c1)ccc1cccnc12 [Phenanthroiine, phenanthroline]

Relative Activity (phthalyl amidase [1]; Table 10, phthalyl amides): 544.6
Compound: O=C(O)c1ccccc1C(=O)Nc1ccc([N+](=O)[O-])cc1 [VIII]

Relative Activity (phthalyl amidase [1]; Table 10, phthalyl amides): 100.0
Compound: O=C(O)C1=C(Cl)CCC2C(NC(=O)c3ccccc3C(=O)O)C(=O)N12 (stereo not drawn) [VII]

Relative Activity (phthalyl amidase [1]; Table 9, beta-lactams): 0
Compound: O=C(O)CN1C(=O)C(NC(=O)c2ccccc2)C1CCc1ccco1 (stereo not drawn) [VI]

Relative Activity (phthalyl amidase [1]; Table 9, beta-lactams): 0
Compound: O=C(O)CN1C(=O)C(NC(=O)Cc2ccccc2)C1CCc1ccco1 (stereo not drawn) [V]

acceptance as substrate of the enzyme (phthalyl amidase [1]): most active compound found | Relative Activity (phthalyl amidase [1]; Table 10, phthalyl amides): 1027.2
Compound: CCCCCCC(C(=O)O)n1cnc(NC(=O)c2ccccc2C(=O)O)c1 (stereo not drawn) [XIII]

Relative Activity (phthalyl amidase [1]; Table 10, phthalyl amides): 9.7
Compound: CC(C)NC(=O)c1ccccc1C(=O)O [XII]

Relative Activity (phthalyl amidase [1]; Table 10, phthalyl amides): 118.5
Compound: COC(=O)[C@H](Cc1ccccc1)NC(=O)[C@H](CC(=O)O)NC(=O)c1ccccc1C(=O)O [XIV]

Relative Activity (phthalyl amidase [1]; [3]): 0
Compound: CCCCCCC(C(=O)O)n1cnc(NC(=O)c2ccc(C(=O)O)cc2)c1 (stereo not drawn) [XXIII]
acceptance as substrate of the enzyme (phthalyl amidase [1]): completely eliminates hydrolytic activity

acceptance as substrate of the enzyme (phthalyl amidase [1]): Low levels of hydrolysis | Relative Activity (phthalyl amidase [1]; [3]): 0.2
Compound: CCCCCCC(C(=O)O)n1cnc(NC(=O)c2ccccc2-c2nn[nH]n2)c1 (stereo not drawn) [XXII]

Relative Activity (phthalyl amidase [1]; [3]): 0
Compound: CCCCCCC(C(=O)O)n1cnc(NC(=O)c2cccc(C(=O)O)c2)c1 (stereo not drawn) [XXIV]
acceptance as substrate of the enzyme (phthalyl amidase [1]): completely eliminates hydrolytic activity

acceptance as substrate of the enzyme (phthalyl amidase [1]): acceptable | Relative Activity (phthalyl amidase [1]; [3]): 1.3
Compound: CCCCCCC(C(=O)O)n1cnc(NC(=O)c2cccc(O)c2C(=O)O)c1 (stereo not drawn) [XXI]

Relative Activity (phthalyl amidase [1]; [3]): 0
Compound: CCCCCCC(C(=O)O)n1cnc(NC(=O)c2ccccc2)c1 (stereo not drawn) [XXVIII]

Relative Activity (phthalyl amidase [1]; [3]): 0
Compound: CCCCCCC(C(=O)O)n1cnc(NC(=O)c2cc(O)cc(O)c2)c1 (stereo not drawn) [XXVII]

Relative Activity (phthalyl amidase [1]; [3]): 0
Compound: CCCCCCC(C(=O)O)n1cnc(NC(=O)c2cccc(O)c2)c1 (stereo not drawn) [XXVI]

Relative Activity (phthalyl amidase [1]; [3]): 0
Compound: CCCCCCC(C(=O)O)n1cnc(NC(=O)c2ccccc2O)c1 (stereo not drawn) [XXV]
